According to US20020182736A1, “Methods to measure lipid antioxidant activity” (TRUSTEES OF TUFTS COLLEGE, priority 2001, published 2002):
pIC50: −log10 of the molar value. Where “and” joins values, the source holds several entries; their conditions need not be identical. Identical values can stand only once. Entries after “also recorded” stand apart in the source; their conditions may differ. Like-named read-outs stand apart in the source and are kept apart here. Blank lines part the entries; values can stand above or below the compound they belong to.

How the values were obtained:
[1] = system: lipid peroxyl radicals generated by MeO-AMVN in human plasma; experiment: Consumption of endogenous plasma antioxidants induced by MeO-AMVN (HPLC); details: for time to total disappearance in plasma: human plasma 1:5 with PBS, 37° C; for Residual Amount (%) of Cryptoxanthin / Residual Amount (%) of Lutein / Residual Amount (%) of Lycopene / Residual Amount (%) of Zeaxanthin / Residual Amount (%) of β-Carotene: MeO-AMVN 2 mM for 60 min
Protocol: After an overnight fast (10-12 h), blood from two healthy donors was collected in ethylenediaminetetraacetic acid (EDTA)-containing tubes. In order to reduce the variability of different donors, blood samples from these two subjects were collected weekly for the duration of the experiment. Immediately after collection, the samples were placed on ice and protected from light. Plasma was obtained by centrifugation at 800 g for 20 min at 4° C. and immediately used for the in vitro studies.
In the presence of 10-20 mM of AAPH, the flux of aqueous radicals calculated on the basis of the known rate of free radical generation from AAPH at 37° C.
In order to obtain homogeneous incorporation, the lipid soluble initiators were added slowly to the samples with a micro-syringe (10 μl) with stirring. The samples were then vortexed for 10 sec and incubated at 37±1° C. under aerobic conditions.
In a second similar experiment, other antioxidants were studied. […] A 100 μl aliquot of the reaction mixture was extracted for β-carotene and α-tocopherol analysis. Echinenone in ethanol was added as an internal standard. The mixture was extracted with CHCl3:CH3OH (2:1 v/v) containing 0.2% BHT and hexane containing 0.1% BHT, dried under nitrogen, redissolved in ethanol, and injected into an HPLC system with a C30 column (3 μm, 150×4.6 mm, YMC, Wilmington, N.C.).
For water-soluble antioxidant measurement, the mixtures were immediately deproteinized with perchloric acid (250 mM).
Results are expressed as percentages with respect to control samples prepared without the azo-compounds.

[2] = system: aqueous peroxyl radicals generated by AAPH in human plasma; experiment: Consumption of endogenous plasma antioxidants induced by AAPH (HPLC); details: for time to complete consumption in plasma: 37° C; for percentage remaining / Residual Amount (%) / Residual Amount (%) of Cryptoxanthin / Residual Amount (%) of Lutein / Residual Amount (%) of Lycopene / Residual Amount (%) of Zeaxanthin / Residual Amount (%) of β-Carotene: AAPH 20 mM for 120 min; for percentage remaining / Residual Amount (%): no EGCG (control)
Protocol: In a second similar experiment, other antioxidants were studied. […] Echinenone in ethanol was added as an internal standard.

[3] = cited from earlier work; for redox potential E: E(EGCG-O., H+/EGCG-OH), E(A−., H+/AH−)
[4] = system: lipid plasma compartment oxidation; experiment: Lipid plasma compartment oxidation, BODIPY 581/591 green fluorescence
Protocol: Plasma oxidation was measured fluorometrically using two different fluorescent probes: DCFH and BODIPY. DCFH-DA and BODIPY stock solutions were prepared in EtOH and dimethylsulfoxide, respectively, stored under nitrogen at −20° C. and used within two months. The final plasma dilution was 1:5 (v/v).
In the experiments using β-carotene, to avoid the filtering effect due to the carotenoid, the oxidation product of BODIPY was also detected at λex=520 and at λem-540 nm. The fluorescence measurements were carried out using a Perkin Elmer spectrofluorometer (model 650-10s) with 1 cm path length fluorescence cuvettes.
Briefly, β-carotene (dissolved in stabilized THF, 10 mg/ml) or α-tocopherol (4.3 mg/ml in EtOH) were added to plasma to reach a final concentration of 50 μM; the samples were then vortexed for 30 sec and incubated at 37±1° C. for 1 to 6 hr under nitrogen. […] Controls were prepared in the same way using solvent only.
The effect of adding the membrane soluble antioxidants, α-tocopherol (in EtOH) and β-carotene (in THF), pre-incubated with plasma, was studied. […] Values are mean±SD of five independent experiments. Statistical analysis: one-way ANOVA with Tukey's post test; *p<0.05, **p<0.01.
To monitor the aqueous phase oxidizability, AAPH was used as a hydrophilic radical generator and coupled to DCFH was used as the indicator.

[5] = system: aqueous plasma compartment oxidation; experiment: Aqueous plasma compartment oxidation, DCFH to DCF fluorescence; parameters: species or system human; details: for protective effect on aqueous compartment oxidation: 180 min of incubation
Protocol: The final plasma dilution was 1:5 (v/v).
DCFH was prepared from DCFH-DA by basic hydrolysis. Briefly 500 μl of DCFH-DA stock solution (1 mM) was mixed with 2 ml of NaOH (0.01 N at 4° C.) for 20 minutes while protected from the light. The mixture was then neutralized with 2 ml of HCl (0.01 N), diluted with PBS to a final concentration of 10 μM and stored in ice for no longer than 8 hrs (working solution); an aliquot of 100 μl was added to 200 μl of plasma and then diluted to a final volume of 1 ml with PBS. […] The excitation wavelength (λex) was set at […] (slit 5 nm) and emission (λem) at 520 nm (slit 5 nm).
Values are mean±SD of five independent experiments. […] Samples were incubated at 37° C. in the dark and at fixed times the DCF content measured by fluorescence (λex=502 nm, λem=520 nm).

[6] = ESR quenching of α-tocopheroxyl radical generated from α-tocopherol and DPPH; format: biochemical; details: for pIC50: read-out: IC50 quenching of α-TOC-O. ESR signal
Protocol: α-TOC+DPPH→α-TOC-O.+DPPHH [1]
For sample preparation, α-tocopherol (900 μM) and DPPH (600 μM) in ethanol solution were mixed for 20 sec and 50 μl of the reaction mixture transferred into a capillary ESR tube. (−)-Epigallocatechin-(3)-gallate (EGCG) was added to the mixture immediately after DPPH decolorization (30 sec after DPPH addition).

[7] = system: oxidation of lipid compartment of plasma; experiment: Lipid compartment oxidizability of plasma with BHT standard (MeO-AMVN, BODIPY 581/591); details: for Green Fluorescence, 25 μM: equals Plasma minus Plasma + BHT
Protocol: In order to standardize the method to determine the lipophilic antioxidant capacity, butylated hydroxytoluene (BHT), a phenolic synthetic antioxidant, was chosen as an internal standard. Polyenes and certain foods were packaged with added BHT to protect against oxidation. Plasma was incubated with BODIPY 581/591 in the presence and absence of BHT (25 & 50 µM) at 37° C. for 30 min, and determined for oxidizability in the lipid compartment. There was no significant difference among incubation times of 30 min, 1 hr and 2 hr, on the incorporation of BHT in the lipid compartment of plasma (FIG. 14). […] The concentration of BHT may also be reduced to a level sufficient to produce a detectable signal.

[8] = 20 mM AAPH, human plasma 1:5 with PBS
[9] = Subject 1, 2 hr incubation w/1 mM MeO-AMVN
[10] = Subject 1, 3 hr incubation w/1 mM MeO-AMVN
[11] = Subject 2, 2 hr incubation w/1 mM MeO-AMVN
[12] = Subject 2, 3 hr incubation w/1 mM MeO-AMVN
[13] = Subject 3, 2 hr incubation w/1 mM MeO-AMVN
[14] = Subject 3, 3 hr incubation w/1 mM MeO-AMVN

SMILES: O=c1[nH]c(=O)c2[nH]c(=O)[nH]c2[nH]1 [uric acid]
time to total disappearance in plasma ([1]; 2 mM MeO-AMVN): 300 min
time to complete consumption in plasma [2, 8]: ≤ 180 min

SMILES: CC1=C(/C=C/C(C)=C/C=C/C(C)=C/C=C/C=C(C)/C=C/C=C(C)/C=C/C2=C(C)C[C@@H](O)CC2(C)C)C(C)(C)C[C@H](O)C1 [Zeaxanthin, zeaxanthin]
percentage remaining / Residual Amount (%) [2]: 17.50 ± 5.98%
percentage remaining / Residual Amount (%) ([2]; listed as zeaxanthin): 17.50±5.98%

pIC50 ([4]; read-out: IC50 in lipid compartment, MeO-AMVN 2 mM, after 180 min of incubation): 5.36
pIC50 ([5]; AAPH 20 mM, after 180 min of incubation): 6.14
pIC50 ([6]; 60 sec after the beginning of the reaction): 4.92
SMILES: O=C(O[C@@H]1Cc2c(O)cc(O)cc2O[C@@H]1c1cc(O)c(O)c(O)c1)c1cc(O)c(O)c(O)c1 [EGCG, (−)-Epigallocatechin-(3)-gallate]
redox potential E [3]: 0.48 V
ΔE to reduce tocopheroxyl radical ([3]; physiological pH): 0.06 V
protective effect on lipid compartment oxidation ([4]; EGCG 0.5 μM, MeO-AMVN 2 mM, 180 min of incubation): 13.01±0.56%
protection of lipid compartment oxidation ([4]; EGCG 10 μM, MeO-AMVN 2 mM, 180 min of incubation): 68±2.3%
lowest / starting effective concentration, lipid compartment ([4]; MeO-AMVN 2 mM, 180 min): 0.5 µM and 0.5 to 1 µM
Residual Amount (%) of Cryptoxanthin ([1]; EGCG 0.5 μM): 54.38 ± 2.74%
Residual Amount (%) of Lutein ([1]; EGCG 0.5 μM): 32.57 ± 4.14%
Residual Amount (%) of Lycopene ([1]; EGCG 0.5 μM): 20.15 ± 3.22%
Residual Amount (%) of Zeaxanthin ([1]; EGCG 0.5 μM): 47.69 ± 5.85%
Residual Amount (%) of β-Carotene ([1]; EGCG 0.5 μM): 51.95 ± 1.68%
Residual Amount (%) of Cryptoxanthin ([1]; EGCG 1 μM): 52.36 ± 0.79%
Residual Amount (%) of Lutein ([1]; EGCG 1 μM): 33.75 ± 3.94%
Residual Amount (%) of Lycopene ([1]; EGCG 1 μM): 19.76 ± 2.62%
Residual Amount (%) of Zeaxanthin ([1]; EGCG 1 μM): 49.64 ± 2.14%
Residual Amount (%) of β-Carotene ([1]; EGCG 1 μM): 50.15 ± 3.35%
Residual Amount (%) of Cryptoxanthin ([1]; EGCG 5 μM): 45.16 ± 3.09%
Residual Amount (%) of Lutein ([1]; EGCG 5 μM): 44.64 ± 5.50%
Residual Amount (%) of Lycopene ([1]; EGCG 5 μM): 23.56 ± 1.78%
Residual Amount (%) of Zeaxanthin ([1]; EGCG 5 μM): 44.31 ± 0.94%
Residual Amount (%) of β-Carotene ([1]; EGCG 5 μM): 57.73 ± 0.54%
% α-tocopherol remaining ([1]; EGCG 10 μM, MeO-AMVN): 96.71±1.46%
Residual Amount (%) of Cryptoxanthin ([1]; EGCG 10 μM): 41.84 ± 1.60%
Residual Amount (%) of Lutein ([1]; EGCG 10 μM): 40.36 ± 4.03%
Residual Amount (%) of Lycopene ([1]; EGCG 10 μM): 26.72 ± 0.94%
Residual Amount (%) of Zeaxanthin ([1]; EGCG 10 μM): 42.67 ± 2.04%
Residual Amount (%) of β-Carotene ([1]; EGCG 10 μM): 59.13 ± 3.72%
sparing of carotenoids depletion ([1]; EGCG 0.5-10 μM, MeO-AMVN): ineffective; also recorded: failed to prevent
concentration at which activity starts, aqueous compartment ([5]; AAPH 20 mM, 180 min): 0.25 µM
protective effect on aqueous compartment oxidation ([5]; EGCG 10 μM, AAPH 20 mM): 93.02±2.02%
protective effect on aqueous compartment oxidation ([5]; EGCG 0.25 AM, AAPH 20 mM): 20.25±0.34%
antioxidant efficiency in the aqueous in respect to the lipid domain ([5]; from IC50 after 180 min): six times greater
Residual Amount (%) of Cryptoxanthin ([2]; EGCG 0.5 μM): 28.46 ± 3.35%
Residual Amount (%) of Lutein ([2]; EGCG 0.5 μM): 26.05 ± 4.26%
Residual Amount (%) of Lycopene ([2]; EGCG 0.5 μM): 9.35 ± 5.18%
Residual Amount (%) of Zeaxanthin ([2]; EGCG 0.5 μM): 25.61 ± 6.53%
Residual Amount (%) of β-Carotene ([2]; EGCG 0.5 μM): 41.51 ± 6.64%
Residual Amount (%) of Cryptoxanthin ([2]; EGCG 1 μM): 36.21 ± 1.71 %
Residual Amount (%) of Lutein ([2]; EGCG 1 μM): 40.64 ± 5.30 %
Residual Amount (%) of Lycopene ([2]; EGCG 1 μM): 18.06 ± 2.44%
Residual Amount (%) of Zeaxanthin ([2]; EGCG 1 μM): 48.78 ± 4.81 %
Residual Amount (%) of β-Carotene ([2]; EGCG 1 μM): 54.38 ± 4.86 %
Residual Amount (%) of Cryptoxanthin ([2]; EGCG 5 μM): 48.88 ± 2.08 %
Residual Amount (%) of Lutein ([2]; EGCG 5 μM): 56.05 ± 4.42 %
Residual Amount (%) of Lycopene ([2]; EGCG 5 μM): 25.26 ± 1.02 %
Residual Amount (%) of Zeaxanthin ([2]; EGCG 5 μM): 58.89 ± 5.10 %
Residual Amount (%) of β-Carotene ([2]; EGCG 5 μM): 58.63 ± 3.30 %
Residual Amount (%) of Cryptoxanthin ([2]; EGCG 10 μM): 56.45 ± 5.00 %
Residual Amount (%) of Lutein ([2]; EGCG 10 μM): 63.13 ± 8.15 %
Residual Amount (%) of Lycopene ([2]; EGCG 10 μM): 32.30 ± 4.24 %
Residual Amount (%) of Zeaxanthin ([2]; EGCG 10 μM): 62.36 ± 11.92 %
Residual Amount (%) of β-Carotene ([2]; EGCG 10 μM): 64.35 ± 6.37 %
effect on consumption of ascorbic acid and uric acid ([2]; EGCG 0.5-10 μM, 20 mM AAPH): ineffective
% inhibition of ESR signal ([6]; EGCG 2 μM, 60 sec after the beginning of the reaction): 8±1.3%
quenching effect on ESR signal ([6]; EGCG 25 μM): almost complete disappearance

pIC50 ([6]; unit inferred): 4.85
SMILES: O=C1O[C@H]([C@@H](O)CO)C(O)=C1O [ascorbic acid]
redox potential E [3]: 0.28 V
time to total disappearance in plasma ([1]; 2 mM MeO-AMVN): 30 min
time to complete consumption in plasma [2, 8]: ≤ 15 min

SMILES: CC1=C(/C=C/C(C)=C/C=C/C(C)=C/C=C/C=C(C)/C=C/C=C(C)/C=C/C2=C(C)CCCC2(C)C)C(C)(C)CCC1 [β-Carotene, β-carotene]
percentage remaining / Residual Amount (%) [2]: 28.89±6.17%

SMILES: CC(C)CC(C)(C#N)N=NC(C)(C#N)CC(C)C (stereo not shown) [AMVN, 2,2′-azobis(2,4-dimethylvaleronitrile)]
change in BODIPY fluorescence in plasma ([4]; 2 mM initiator, 37° C): no observed changes; also recorded: No change

SMILES: Cc1c(C)c2c(c(C)c1O)CC[C@@](C)(CCC[C@H](C)CCC[C@H](C)CCCC(C)C)O2 [α-tocopherol]
time to almost total depletion ([1]; 2 mM MeO-AMVN): 60 min
content reduced by ([1]; 2 mM MeO-AMVN, at 30 min): 42%
% α-tocopherol remaining ([1]; control without EGCG, MeO-AMVN): 16.43±1.72%
time to almost complete consumption in plasma ([2]; 10-20 mM AAPH, human plasma 1:5 with PBS): ≤ 30 min
percentage remaining / Residual Amount (%) [2]: 3.86±0.94%

SMILES: Cc1cc(C(C)(C)C)c(O)c(C(C)(C)C)c1 [BHT, butylated hydroxytoluene]
protection of oxidation of lipid compartment ([7]; BHT added to plasma): 78%
Green Fluorescence, Plasma + BHT [7, 9]: 107 ± 1.4
Green Fluorescence, 25 μM [7, 9]: 382
Green Fluorescence, Plasma + BHT [7, 10]: 217 ± 4.0
Green Fluorescence, 25 μM [7, 10]: 806
Green Fluorescence, Plasma + BHT [7, 11]: 123 ± 7.3
Green Fluorescence, 25 μM [7, 11]: 347
Green Fluorescence, Plasma + BHT [7, 12]: 223 ± 8.9
Green Fluorescence, 25 μM [7, 12]: 650
Green Fluorescence, Plasma + BHT [7, 13]: 142 ± 8.0
Green Fluorescence, 25 μM [7, 13]: 245
Green Fluorescence, Plasma + BHT [7, 14]: 250 ± 13.3
Green Fluorescence, 25 μM [7, 14]: 551

SMILES: CC1=C[C@H](O)CC(C)(C)[C@H]1/C=C/C(C)=C/C=C/C(C)=C/C=C/C=C(C)/C=C/C=C(C)/C=C/C1=C(C)C[C@@H](O)CC1(C)C [Lutein, lutein]
percentage remaining / Residual Amount (%) [2]: 12.82 ± 4.85%
percentage remaining / Residual Amount (%) ([2]; listed as lutein): 12.82±4.85%

SMILES: CC(C)=CCC/C(C)=C/C=C/C(C)=C/C=C/C(C)=C/C=C/C=C(C)/C=C/C=C(C)/C=C/C=C(\C)CCC=C(C)C [Lycopene, lycopene]
percentage remaining / Residual Amount (%) [2]: 8.49 ± 5.20%
percentage remaining / Residual Amount (%) ([2]; listed as lycopene): 8.49±5.20%

SMILES: CC1=C(/C=C/C(C)=C/C=C/C(C)=C/C=C/C=C(C)/C=C/C=C(C)/C=C/C2=C(C)C[C@@H](O)CC2(C)C)C(C)(C)CCC1 [Cryptoxanthin, cryptoxanthin]
percentage remaining / Residual Amount (%) [2]: 18.94 ± 3.86%
percentage remaining / Residual Amount (%) ([2]; listed as cryptoxanthin): 18.94±3.86%
